Experiments:
[1] = system: R0 transgenic soybean expressing HemG PPO with targeting peptide; test: R0 transgenic soybean herbicide tolerance: percent injury scores; type: in vivo; details: seven days
Source text: This permitted the side-by-side comparison of seven different HemG PPO enzymes with thirty-seven different targeting peptides using the same promoter and 3′UTR elements for gene expression. These plant transformation constructs were used to transform soybean excised embryos (germplasm A3555) using A. tumefaciens and standard methods known in the art. Four hundred explants were inoculated for each construct resulting in twelve containers per construct. A sterile PPO herbicide solution was used for herbicide tolerance testing. The herbicide solution consisted of 0.3 g of S-3100 in crop oil concentrate (5.0 mL) and 495 mL of deionized water. This was filtered through a 0.45 micron Nalgene® Rapid-Flow™ Tissue Culture Filter Unit and Surfactant-Free Cellulose Acetate membrane filter unit (VWR, Radnor, PA, USA). The resulting sterile solution was shaken before application.
The plantlets in the non-sprayed containers corresponding to constructs having a score of 2 were transplanted at approximately 7 weeks post transformation and grown as R0 plants using standard methods known in the art. Plantlets corresponding to non-tolerant scores of 0 and 1 were also grown to serve as negative controls. The R0 plants were grown in a greenhouse under long-day nursery conditions (18 hr light at 80° F. then 6 hr dark at 74° F.) for approximately four weeks. At eleven weeks, the R0 plants were sprayed with two passes of the same herbicide solution (0.3 g of 5-3100) described above. Herbicide injury ratings were collected seven days after treatment.
The results of the herbicide tolerance application at eleven weeks to the R0 plants confirmed the low percent injury rating scores observed in the high-throughput screen at five weeks. Any injury rating of 30% or above was equivalent to non-transgenic soybean injury ratings. A few of the constructs stood out as providing very good tolerance to the herbicide application. […] Data are provided in Table 10, where n.d. indicates the analysis was not conducted.

[2] = system: maize, non-transgenic or F1 containing H_N10 (SEQ ID NO: 4); test: Efficacy field trial of F1 maize; type: in vivo
Procedure: This F1 population was segregating (50% hemizygous and 50% null) and selection for transgenic plants was not conducted prior to injury ratings. The overall average injury ratings for such a population are expected to be higher than a homogenous transgenic population since it is difficult to discern non-transgenic plants from transgenic plants. The trials were conducted at two locations with two replicates and 3 treatments per construct. Non-transgenic maize plants were used as a negative control. The herbicide application treatments were as follows: Treatment 1 was 0.036 lb ai/acre S-3100 applied at V2 followed by (fb) V4 fb V8; Treatment 2: was 0.072 lb ai/acre S-3100 applied at V2 fb V4 fb V8; Treatment 3: was 0.144 lb ai/acre S-3100 applied at V2 fb V4 fb V8. Crop Injury Percent ratings were assessed at the V2 growth stage (CIPV2) and at the V4 growth stage (CIPV4) at 5 to 7 days after treatment (the error V2 and error V4 are half of the least significant difference (LSD)). The crop injury ratings were combined for both locations.

[3] = target: Maize (Zea mays) protoporphyrinogen oxidase (PPO), wild type; test: PPO enzyme assay (plastid extract); type: biochemical; details: 3 μM protogen; pH 7.4, 30° C.; read-out: S-3100 IC50
[4] = system: transgenic maize expressing HemG PPO enzymes; test: Transgenic Maize Herbicide Tolerance II (R0 plants sprayed); type: in vivo; details: 40 grams/ha; for Average Injury: V5, 7 days
Source text: H_N60 (SEQ ID NO:3). […] These five constructs had the same promoter plus leader plus intron combination, with two different targeting peptide (TP) sequences, and the same 3′UTR sequence. Leaf samples were taken from the R0 plants and analyzed by PCR to determine the transgene copy number. Single copy plants for up to 12 unique events per construct were transplanted to pots, selfed and outcrossed to generate R1 and F1 seed, respectively, for future testing. Multi-copy plants and extra single copy plants were sprayed with 40 grams/ha 5-3100 at approximately the V5 growth stage and injury ratings were taken 7 days after treatment. The average percent (%) injury for all plants expressing each PPO enzyme and the number of plants that were deemed highly tolerant (less than 10% injury) was noted, where each plant is a unique single or multi-copy transformant.

[5] = system: transgenic maize plants; test: R0 transgenic maize 40 g/ha S-3100 spray test; type: in vivo
[6] = H_N10, construct 6, Trt 1, 0.036 lb ai/acre
[7] = H_N10, construct 6, Trt 2, 0.072 lb ai/acre
[8] = H_N10, construct 6, Trt 3, 0.144 lb ai/acre
[9] = H_N10, construct 16, Trt 1, 0.036 lb ai/acre
[10] = H_N10, construct 16, Trt 2, 0.072 lb ai/acre
[11] = H_N10, construct 16, Trt 3, 0.144 lb ai/acre
[12] = wildtype, Trt 1, 0.036 lb ai/acre V2 fb V4 fb V8
[13] = wildtype, Trt 2, 0.072 lb ai/acre V2 fb V4 fb V8
[14] = wildtype, Trt 3, 0.144 lb ai/acre V2 fb V4 fb V8
[15] = 40 grams/ha S-3100 at V5, 7 days after treatment, R0 plants

CCOC(=O)COc1ncccc1Oc1cc(-n2c(=O)cc(C(F)(F)F)n(C)c2=O)c(F)cc1Cl [S-3100, ethyl [3-2-chloro-4-fluoro-5-(1-methyl-6-trifluoromethyl-2,4-dioxo-1,2,3,4-tetrahydropyrimidin-3-yl)phenoxy]-2-pyridyloxylacetate]
percent injury score ([1]; H_N20, TP6): 15%
percent injury score ([1]; H_N20, TP7): 20%
percent injury score ([1]; H_N30, TP1): 5%
percent injury score ([1]; H_N40, TP1): 5%
percent injury score ([1]; H_N40, TP4): 15%
percent injury score ([1]; H_N40, TP7): 40%
percent injury score ([1]; H_N40, TP8): 30%
percent injury score ([1]; H_N50, TP6): 40%
percent injury score ([1]; H_N90 (SEQ ID NO:11), TP20): 5%
percent injury score ([1]; H_N90 (SEQ ID NO:11), TP32): 50%
percent injury score ([1]; H_N90, TP1): 3%
percent injury score ([1]; H_N90, TP2): 35%
percent injury score ([1]; H_N90, TP3): 30%
percent injury score ([1]; H_N90, TP6): 25%
percent injury score ([1]; H_N90, TP7): 15%
percent injury score ([1]; H_N90, TP8): 40%
percent injury score ([1]; H_N100, TP1): 15%
percent injury score ([1]; H_N100, TP6): 30%
percent injury score ([1]; H_N100, TP7): 30%
CIPV2 (Crop Injury Percent, V2) [2, 6]: 37.5%
CIPV4 (Crop Injury Percent, V4) [2, 6]: 0%
CIPV2 (Crop Injury Percent, V2) [2, 7]: 37.5%
CIPV4 (Crop Injury Percent, V4) [2, 7]: 0%
CIPV2 (Crop Injury Percent, V2) [2, 8]: 50%
CIPV4 (Crop Injury Percent, V4) [2, 8]: 0%
CIPV2 (Crop Injury Percent, V2) [2, 9]: 96.3%
CIPV4 (Crop Injury Percent, V4) [2, 9]: 98.5%
CIPV2 (Crop Injury Percent, V2) [2, 10]: 99.5%
CIPV4 (Crop Injury Percent, V4) [2, 10]: 99.5%
CIPV2 (Crop Injury Percent, V2) [2, 11]: 99.5%
CIPV4 (Crop Injury Percent, V4) [2, 11]: 99.5%
injury following V2 and V4 application ([2]; non-transgenic and construct 16, all three treatments): 94.6-99.5%
CIPV2 (Crop Injury Percent, V2) [2, 12]: 94.6%
CIPV4 (Crop Injury Percent, V4) [2, 12]: 99%
CIPV2 (Crop Injury Percent, V2) [2, 13]: 99.5%
CIPV4 (Crop Injury Percent, V4) [2, 13]: 99.5%
CIPV2 (Crop Injury Percent, V2) [2, 14]: 99.5%
CIPV4 (Crop Injury Percent, V4) [2, 14]: 99.5%
IC50 [3]: 3 nM
Average Injury ([4]; H_N10 (SEQ ID NO 4), construct 6): 39.5%
Highly Tolerant (less than 10% injury) ([4]; H_N10 (SEQ ID NO 4), construct 6, of 139 plants): 31 plants
Average Injury ([4]; H_N40 (SEQ ID NO 6), construct 23): 47.0%
Highly Tolerant (less than 10% injury) ([4]; H_N40 (SEQ ID NO 6), construct 23, of 98 plants): 53 plants
Average Injury ([4]; H_N60 (SEQ ID NO 3), construct 20): 55.8%
Highly Tolerant (less than 10% injury) ([4]; H_N60 (SEQ ID NO 3), construct 20, of 86 plants): 19 plants
Average Injury ([4]; H_N90 (SEQ ID NO 1), construct 21): 31.4%
Highly Tolerant (less than 10% injury) ([4]; H_N90 (SEQ ID NO 1), construct 21, of 99 plants): 44 plants
Average Injury ([4]; H_N110 (SEQ ID NO 10), construct 22): 43.0%
Highly Tolerant (less than 10% injury) ([4]; H_N110 (SEQ ID NO 10), construct 22, of 94 plants): 0 plants

B1: H_N90: microbial HemG protoporphyrinogen oxidase, SEQ ID NO:1 (SEQ ID NO:11 lacking start methionine; variants 18, 19) (protein, listed as Enterobacter cloacae)
chain: MKALVLYSTRDGQTHAIASYIASCMKEKAECDVIDLTHGEHVNLTQYDQVLIGASIRYGHFNAVLDKFIKRNVDQLNNMPSAFFCVNLTARKPEKRTPQTNPYVRKFLLATPWQPALCGVFAGALRYPRYRWIDKVMIQLIMRMTGGETDTSKEVEYTDWEQVKKFAEDFAKLSYKKAL
Average Injury [5, 15]: 31.4%
Highly Tolerant (number of plants with less than 10% injury) [5, 15]: 44
injury rates when expressed in transgenic plants (crop tolerance to a PPO herbicide) ([5]; R0 transgenic maize data): reduced injury rates

Source: patent US12123009B2, “Methods and compositions for PPO herbicide tolerance in plants” (Monsanto Technology LLC, priority 2015, dated 2024)
